Consider one compound from patent US20080261902A1, “Pharmaceutical composition containing polydatin and its application” (Shenzhen Neptunus Pharmaceutical Co., Ltd., priority 2005, published 2008).

Data set [1] is described as follows: Solubility of polydatin in propanediol-water solution (Embodiment 14). The format is physicochemical. Conditions: for solubility at 8 h: thermodynamic from solid, room temperature. How it is done: Materials: 1,2-propanediol, analytically pure, Guangzhou No. 2 chemical reagent factory; purified water, […] industry city. Method: Preparing propanediol water solutions having concentration of at least 20%(v/v) with propanediol and purified water. Precisely measuring propanediol and 20 ml propanediol water solution of each above concentration, adding polydatin of proper amount respectively, treating with ultrasonic for 20 min under 40° C., supersaturating the solution, placing for 8 h under room temperature, filtering with 0.45 μm microporous membrane, wherein the filtrates are saturated solutions of polydatin in propanediol water solutions of different concentration. Adopting HPLC method to determine content of polydatin in the filtrates and calculate solubility of polydatin referring to document 20.

Data set [2] has as its system SD rats, shock related to skin burn. Description: Treatment action for shock related to skin burn (Embodiment A8). The format is in vivo. Conditions: 2.4 mg/kg venous injection half hour after burning; control 7.0±2.6 hours.
A short description of data set [3]: Solubility of polydatin in alcohol-propanediol-water mixed solvent (Embodiment 15). The conditions noted are these: mixed solvent of 60% alcohol-water and propanediol 10:25(v/v) as printed. The class given is physicochemical.
In another data set the test system is hyperlipoidemia patient. The conditions noted are these: 2.2 mg/kg/d; cited from earlier work.

Converted amounts (≈) assume the structure as drawn.

Consider `OCC1OC(Oc2cc(O)cc(/C=C/c3ccc(O)cc3)c2)C(O)C(O)C1O` [polydatin, 3,4′,5-trihydroxy-trans stilbene-3-β-D-glucoside], for which the solubility at 8 h in data set [1] (1,2-propanediol, organic solvent or mixture, content of propanediol 100% (propanediol)) was around 60 mg/mL (≈ 154 mM); in data set [1] (propanediol-water solution, aqueous with cosolvent or surfactant or cyclodextrin, content of propanediol 20% (v/v) in water), around 3.5 mg/mL (≈ 8.97 mM); in data set [1] (propanediol-water solution, aqueous with cosolvent or surfactant or cyclodextrin, content of propanediol 35% (v/v) in water), 4.9 mg/mL (≈ 12.6 mM); in data set [1] (propanediol-water solution, aqueous with cosolvent or surfactant or cyclodextrin, content of propanediol 50% (v/v) in water), 24.4 mg/mL (≈ 62.5 mM); in data set [1] (propanediol-water solution, aqueous with cosolvent or surfactant or cyclodextrin, content of propanediol 65% (v/v) in water), 28.3 mg/mL (≈ 72.5 mM); in data set [1] (propanediol-water solution, aqueous with cosolvent or surfactant or cyclodextrin, content of propanediol 80% (v/v) in water) it was 33.6 mg/mL (≈ 86.1 mM). Besides, in data set [1] (20% propanediol water solution, about 3.5 mg/ml), the “stability of the solution” value was “precipitates solute of polydatin after placing for 12 h”. In addition, the average survival period in data set [2] is above 13.3 h. Moreover, the “stabilization of the solution in cold preservation” value in data set [3] was “good stabilization”. Moreover, the “total cholesterol, LDL/HDL cholesterol ratio, and blood platelet aggregation rate” value in the data set with hyperlipoidemia patient was “capable of lowering”.
